# Results: ChEMBL document CHEMBL3758137 (Eur J Med Chem, 2016)
# pIC50: −log10 of the molar value.
# Assays:
# [1] = target: Fibroblast growth factor receptor 1 (Homo sapiens, UniProt P11362); experiment: Inhibition of recombinant human FGFR1 using poly (Glu,Tyr)4:1 as substrate after 60 mins by ELISA
# [2] = target: Proto-oncogene tyrosine-protein kinase Src (Homo sapiens, UniProt P12931); experiment: Inhibition of recombinant human c-Src using poly (Glu,Tyr)4:1 as substrate after 60 mins by ELISA
# Chain of Proto-oncogene tyrosine-protein kinase Src (P12931 2-536 limits assumed): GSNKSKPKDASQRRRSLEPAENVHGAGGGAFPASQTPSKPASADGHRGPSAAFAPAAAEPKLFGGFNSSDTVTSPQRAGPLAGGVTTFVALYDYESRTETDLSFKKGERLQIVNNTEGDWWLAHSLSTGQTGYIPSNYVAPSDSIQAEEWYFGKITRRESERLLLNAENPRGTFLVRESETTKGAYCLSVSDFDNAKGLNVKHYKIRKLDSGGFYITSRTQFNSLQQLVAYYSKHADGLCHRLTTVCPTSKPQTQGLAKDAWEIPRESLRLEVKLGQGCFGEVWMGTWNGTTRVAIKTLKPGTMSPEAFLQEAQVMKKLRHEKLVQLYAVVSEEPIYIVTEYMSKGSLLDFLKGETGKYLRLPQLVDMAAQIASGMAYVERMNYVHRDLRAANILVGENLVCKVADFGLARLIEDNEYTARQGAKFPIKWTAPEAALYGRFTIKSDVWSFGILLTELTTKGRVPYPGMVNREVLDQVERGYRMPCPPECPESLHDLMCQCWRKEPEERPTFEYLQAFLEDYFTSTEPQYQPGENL
# [3] = Antitumor activity against human EBC1 cells xenografted in nude mouse assessed as tumor growth inhibition at 40 mg/kg, po qd administered for 21 days relative control; format: functional; conditions: EBC-1, po, 504 h, read-out: TGI
# [4] = Apparent permeability from basolateral to apical side in human Caco2 cells after 35 to 95 mins by LC-MS/MS analysis; format: ADME, cell-based; conditions: Caco-2
# [5] = target: Epidermal growth factor receptor (Homo sapiens, UniProt P00533); experiment: Inhibition of recombinant human EGFR using poly (Glu,Tyr)4:1 as substrate after 60 mins by ELISA
# [6] = target: Receptor tyrosine-protein kinase erbB-2 (Homo sapiens, UniProt P04626); experiment: Inhibition of recombinant human ErbB2 using poly (Glu,Tyr)4:1 as substrate after 60 mins by ELISA
# Chain of Receptor tyrosine-protein kinase erbB-2 (P04626 whole entry): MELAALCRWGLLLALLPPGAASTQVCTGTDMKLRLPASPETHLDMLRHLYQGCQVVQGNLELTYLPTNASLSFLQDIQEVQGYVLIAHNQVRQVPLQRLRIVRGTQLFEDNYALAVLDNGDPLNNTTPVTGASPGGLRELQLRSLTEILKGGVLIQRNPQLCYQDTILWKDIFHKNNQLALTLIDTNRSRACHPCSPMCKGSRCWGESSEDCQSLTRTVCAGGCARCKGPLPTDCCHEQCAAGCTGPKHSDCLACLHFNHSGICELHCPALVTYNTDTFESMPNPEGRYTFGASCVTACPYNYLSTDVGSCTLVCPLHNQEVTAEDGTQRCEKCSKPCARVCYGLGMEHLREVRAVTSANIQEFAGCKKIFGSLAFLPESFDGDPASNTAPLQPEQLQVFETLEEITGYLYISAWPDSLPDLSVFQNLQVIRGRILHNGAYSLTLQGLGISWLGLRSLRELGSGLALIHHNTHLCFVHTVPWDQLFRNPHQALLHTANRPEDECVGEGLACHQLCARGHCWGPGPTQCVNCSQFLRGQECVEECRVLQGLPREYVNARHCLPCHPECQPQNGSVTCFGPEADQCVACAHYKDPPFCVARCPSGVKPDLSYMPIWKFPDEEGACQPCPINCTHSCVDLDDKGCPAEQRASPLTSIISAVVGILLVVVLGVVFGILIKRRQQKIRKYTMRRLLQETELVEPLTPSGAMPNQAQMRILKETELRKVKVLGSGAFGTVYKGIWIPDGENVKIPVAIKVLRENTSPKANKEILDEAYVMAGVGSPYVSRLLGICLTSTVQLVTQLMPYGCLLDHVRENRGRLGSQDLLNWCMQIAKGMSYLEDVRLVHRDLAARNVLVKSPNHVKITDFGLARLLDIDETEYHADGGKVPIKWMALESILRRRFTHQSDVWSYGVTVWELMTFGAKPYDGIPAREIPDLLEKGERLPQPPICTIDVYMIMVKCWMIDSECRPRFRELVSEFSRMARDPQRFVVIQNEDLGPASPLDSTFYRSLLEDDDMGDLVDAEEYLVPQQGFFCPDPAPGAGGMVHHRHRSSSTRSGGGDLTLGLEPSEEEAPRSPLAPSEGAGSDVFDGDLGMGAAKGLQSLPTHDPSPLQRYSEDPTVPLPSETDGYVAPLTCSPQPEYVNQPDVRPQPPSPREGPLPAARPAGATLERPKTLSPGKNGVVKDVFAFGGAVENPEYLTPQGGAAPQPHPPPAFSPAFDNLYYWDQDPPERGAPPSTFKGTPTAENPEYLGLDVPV
# [7] = target: Vascular endothelial growth factor receptor 1 (Homo sapiens, UniProt P17948); experiment: Inhibition of recombinant human Flt-1 using poly (Glu,Tyr)4:1 as substrate after 60 mins by ELISA
# Chain of Vascular endothelial growth factor receptor 1 (P17948 whole entry): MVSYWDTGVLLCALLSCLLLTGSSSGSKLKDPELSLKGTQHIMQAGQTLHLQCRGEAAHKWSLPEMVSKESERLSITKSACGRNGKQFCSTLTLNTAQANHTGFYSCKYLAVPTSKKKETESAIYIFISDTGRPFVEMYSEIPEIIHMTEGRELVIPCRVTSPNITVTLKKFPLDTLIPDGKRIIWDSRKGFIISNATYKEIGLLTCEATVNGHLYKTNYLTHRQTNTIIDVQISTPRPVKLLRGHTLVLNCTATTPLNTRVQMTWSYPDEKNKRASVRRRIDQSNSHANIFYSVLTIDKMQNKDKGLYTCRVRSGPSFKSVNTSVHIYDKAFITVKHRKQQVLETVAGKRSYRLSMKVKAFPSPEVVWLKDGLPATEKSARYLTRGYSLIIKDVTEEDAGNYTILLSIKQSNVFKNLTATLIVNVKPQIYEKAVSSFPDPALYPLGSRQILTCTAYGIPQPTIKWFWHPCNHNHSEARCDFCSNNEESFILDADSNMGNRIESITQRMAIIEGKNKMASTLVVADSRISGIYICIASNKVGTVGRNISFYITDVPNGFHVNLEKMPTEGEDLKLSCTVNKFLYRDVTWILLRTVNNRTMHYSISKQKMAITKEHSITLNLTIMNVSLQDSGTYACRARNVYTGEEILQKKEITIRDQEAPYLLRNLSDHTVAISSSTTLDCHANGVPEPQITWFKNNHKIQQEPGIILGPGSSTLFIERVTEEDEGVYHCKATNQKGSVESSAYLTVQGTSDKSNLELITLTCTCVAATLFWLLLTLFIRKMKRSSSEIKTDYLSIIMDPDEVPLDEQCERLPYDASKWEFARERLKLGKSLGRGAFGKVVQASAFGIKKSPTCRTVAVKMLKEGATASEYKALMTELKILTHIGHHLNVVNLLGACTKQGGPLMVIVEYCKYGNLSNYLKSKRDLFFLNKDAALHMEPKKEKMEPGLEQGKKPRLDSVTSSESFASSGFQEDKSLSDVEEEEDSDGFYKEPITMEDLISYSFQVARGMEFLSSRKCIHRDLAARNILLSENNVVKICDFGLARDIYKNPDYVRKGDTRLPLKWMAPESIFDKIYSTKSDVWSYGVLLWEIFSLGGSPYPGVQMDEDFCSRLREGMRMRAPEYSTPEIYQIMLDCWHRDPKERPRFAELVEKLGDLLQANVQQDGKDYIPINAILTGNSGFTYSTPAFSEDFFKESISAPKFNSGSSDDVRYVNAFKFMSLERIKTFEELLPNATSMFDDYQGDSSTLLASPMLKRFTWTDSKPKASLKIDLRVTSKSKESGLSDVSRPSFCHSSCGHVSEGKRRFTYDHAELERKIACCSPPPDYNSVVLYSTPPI
# [8] = system: Liver microsome; experiment: Intrinsic clearance in rat liver microsomes at 0.1 uM after 7 to 60 mins by LC-MS/MS analysis; format: ADME
# [9] = Solubility of compound in HBSS/HEPES buffer at pH 7.4 by nephelometric analysis in presence of 0.1% BSA; format: physicochemical; conditions: HBSS/HEPES buffer with 0.1% BSA
# [10] = target: T1, Tyrosine-protein kinase Mer (Homo sapiens, UniProt Q12866); experiment: Inhibition of recombinant human Mer using poly (Glu,Tyr)4:1 as substrate after 60 mins by ELISA
# T1 sequence (Q12866 whole entry): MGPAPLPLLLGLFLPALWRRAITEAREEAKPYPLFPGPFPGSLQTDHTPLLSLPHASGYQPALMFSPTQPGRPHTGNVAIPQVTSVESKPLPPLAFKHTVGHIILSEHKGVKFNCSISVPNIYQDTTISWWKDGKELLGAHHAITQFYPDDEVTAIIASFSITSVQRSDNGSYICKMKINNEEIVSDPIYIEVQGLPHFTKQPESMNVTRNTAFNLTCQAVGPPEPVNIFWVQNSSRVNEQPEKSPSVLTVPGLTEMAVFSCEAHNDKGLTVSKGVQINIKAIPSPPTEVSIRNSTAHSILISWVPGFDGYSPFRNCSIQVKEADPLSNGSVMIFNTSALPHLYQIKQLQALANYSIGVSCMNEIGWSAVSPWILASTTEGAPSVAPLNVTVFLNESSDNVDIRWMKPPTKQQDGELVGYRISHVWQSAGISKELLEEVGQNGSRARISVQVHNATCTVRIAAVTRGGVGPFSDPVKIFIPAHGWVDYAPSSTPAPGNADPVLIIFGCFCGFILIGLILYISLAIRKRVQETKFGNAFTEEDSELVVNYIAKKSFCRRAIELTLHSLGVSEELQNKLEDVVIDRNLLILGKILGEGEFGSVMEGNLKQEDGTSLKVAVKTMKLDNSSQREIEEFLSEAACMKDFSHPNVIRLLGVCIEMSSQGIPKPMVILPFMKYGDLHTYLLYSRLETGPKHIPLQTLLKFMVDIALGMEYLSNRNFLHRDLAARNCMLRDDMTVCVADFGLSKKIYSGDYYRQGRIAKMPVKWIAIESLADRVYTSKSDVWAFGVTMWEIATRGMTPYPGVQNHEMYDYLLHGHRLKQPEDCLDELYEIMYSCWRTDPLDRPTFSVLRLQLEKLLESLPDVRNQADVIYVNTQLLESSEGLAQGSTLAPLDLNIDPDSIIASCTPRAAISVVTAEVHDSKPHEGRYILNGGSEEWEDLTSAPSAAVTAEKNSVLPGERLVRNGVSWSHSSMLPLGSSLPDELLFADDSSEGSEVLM
# [11] = system: Mus musculus; experiment: Toxicity in nude mouse xenografted with human EBC1 cells assessed as body weight at 5 and 40 mg/kg, po qd administered for 21 days; format: organism-based; conditions: in vivo, 504 h
# [12] = Solubility of compound in HBSS/HEPES buffer at pH 6.8 by nephelometric analysis in presence of 0.1% BSA; format: physicochemical; conditions: HBSS/HEPES buffer with 0.1% BSA
# [13] = target: T2, Tyrosine-protein kinase receptor UFO (Homo sapiens, UniProt P30530); experiment: Inhibition of recombinant human Axl using poly (Glu,Tyr)4:1 as substrate after 60 mins by ELISA
# T2 sequence (P30530 whole entry): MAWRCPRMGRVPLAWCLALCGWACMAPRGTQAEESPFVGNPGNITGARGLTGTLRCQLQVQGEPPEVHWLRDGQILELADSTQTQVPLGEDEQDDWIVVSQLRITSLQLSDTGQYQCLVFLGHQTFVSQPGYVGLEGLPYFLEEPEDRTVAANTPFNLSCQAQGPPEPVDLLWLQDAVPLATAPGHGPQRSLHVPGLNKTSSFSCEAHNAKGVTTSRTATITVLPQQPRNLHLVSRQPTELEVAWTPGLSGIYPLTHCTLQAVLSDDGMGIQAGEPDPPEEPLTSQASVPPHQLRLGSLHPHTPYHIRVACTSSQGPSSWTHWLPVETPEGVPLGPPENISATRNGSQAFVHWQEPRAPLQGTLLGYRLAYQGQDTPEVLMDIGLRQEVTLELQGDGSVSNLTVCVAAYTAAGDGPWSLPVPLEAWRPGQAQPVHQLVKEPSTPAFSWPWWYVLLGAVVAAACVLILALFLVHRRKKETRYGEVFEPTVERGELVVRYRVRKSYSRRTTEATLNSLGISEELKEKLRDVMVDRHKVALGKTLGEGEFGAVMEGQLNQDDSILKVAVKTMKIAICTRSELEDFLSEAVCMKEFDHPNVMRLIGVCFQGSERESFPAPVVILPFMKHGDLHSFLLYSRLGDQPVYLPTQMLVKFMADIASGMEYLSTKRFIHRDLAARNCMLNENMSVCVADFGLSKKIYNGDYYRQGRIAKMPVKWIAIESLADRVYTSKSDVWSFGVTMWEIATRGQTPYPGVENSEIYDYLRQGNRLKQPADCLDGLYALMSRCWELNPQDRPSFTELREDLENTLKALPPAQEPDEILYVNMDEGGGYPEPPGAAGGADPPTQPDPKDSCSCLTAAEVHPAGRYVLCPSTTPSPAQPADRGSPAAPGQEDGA
# [14] = target: Macrophage-stimulating protein receptor (Homo sapiens, UniProt Q04912); experiment: Inhibition of recombinant human Ron using poly (Glu,Tyr)4:1 as substrate after 60 mins by ELISA
# Chain of Macrophage-stimulating protein receptor (Q04912 25-304 limits assumed): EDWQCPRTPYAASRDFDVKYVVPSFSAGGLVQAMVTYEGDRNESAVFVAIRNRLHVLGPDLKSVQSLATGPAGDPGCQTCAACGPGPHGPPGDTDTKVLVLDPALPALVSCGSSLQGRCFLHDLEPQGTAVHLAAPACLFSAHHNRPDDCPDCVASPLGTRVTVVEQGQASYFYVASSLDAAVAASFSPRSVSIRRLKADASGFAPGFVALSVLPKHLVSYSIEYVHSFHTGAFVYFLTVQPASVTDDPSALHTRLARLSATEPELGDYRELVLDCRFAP
# Chain of Macrophage-stimulating protein receptor (Q04912 310-1400 limits assumed): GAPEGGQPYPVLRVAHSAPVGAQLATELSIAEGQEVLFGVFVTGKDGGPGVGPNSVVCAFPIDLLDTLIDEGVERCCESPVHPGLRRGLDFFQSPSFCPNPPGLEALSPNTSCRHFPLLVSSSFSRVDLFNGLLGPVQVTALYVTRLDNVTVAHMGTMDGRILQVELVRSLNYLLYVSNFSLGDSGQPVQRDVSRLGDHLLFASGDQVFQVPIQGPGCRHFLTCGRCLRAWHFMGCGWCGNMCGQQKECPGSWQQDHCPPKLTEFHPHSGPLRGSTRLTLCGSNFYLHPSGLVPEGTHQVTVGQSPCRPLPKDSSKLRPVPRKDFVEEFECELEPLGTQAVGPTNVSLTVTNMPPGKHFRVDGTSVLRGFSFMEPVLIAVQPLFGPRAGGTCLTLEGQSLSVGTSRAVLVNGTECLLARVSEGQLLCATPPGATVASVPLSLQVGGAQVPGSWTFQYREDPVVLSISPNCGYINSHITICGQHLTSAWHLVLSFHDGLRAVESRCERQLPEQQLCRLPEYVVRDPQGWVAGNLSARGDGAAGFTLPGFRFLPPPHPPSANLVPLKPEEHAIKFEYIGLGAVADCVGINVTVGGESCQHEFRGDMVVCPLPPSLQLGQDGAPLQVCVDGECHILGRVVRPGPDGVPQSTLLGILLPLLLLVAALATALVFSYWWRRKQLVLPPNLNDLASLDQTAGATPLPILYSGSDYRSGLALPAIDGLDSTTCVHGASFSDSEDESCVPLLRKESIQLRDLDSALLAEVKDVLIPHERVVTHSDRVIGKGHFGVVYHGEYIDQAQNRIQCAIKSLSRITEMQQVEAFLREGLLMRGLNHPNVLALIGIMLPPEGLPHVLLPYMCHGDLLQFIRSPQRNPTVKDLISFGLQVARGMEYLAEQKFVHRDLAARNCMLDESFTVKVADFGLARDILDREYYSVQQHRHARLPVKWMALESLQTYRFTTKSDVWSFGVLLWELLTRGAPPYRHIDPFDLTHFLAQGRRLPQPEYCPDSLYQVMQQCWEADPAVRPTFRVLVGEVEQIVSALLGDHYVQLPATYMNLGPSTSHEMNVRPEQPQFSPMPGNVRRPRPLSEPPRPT
# [15] = system: Liver microsome; experiment: Intrinsic clearance in human liver microsomes at 0.1 uM after 7 to 60 mins by LC-MS/MS analysis; format: ADME
# [16] = Apparent permeability from apical to basolateral side in human Caco2 cells after 35 to 95 mins by LC-MS/MS analysis; format: ADME, cell-based; conditions: Caco-2
smiles,measurement,setting,value
Cn1cc(-c2cnc(Nc3cccc(Cn4nc(-c5cnn(C)c5)ccc4=O)c3)nc2)cn1,pIC50,[1],< 6.00
same,pIC50,[2],< 6.00
same,inhibition in vivo at 40 mg/kg,[3],68.6%
same,Papp B→A,[4],22.8 ×10⁻⁶ cm/s
same,pIC50,[5],< 6.00
same,pIC50,[6],< 6.00
same,pIC50,[7],< 6.00
same,CLH,[8],36 mL/min/g
same,solubility kinetic,[9],51 µM
same,pIC50,[10],< 6.00
same,Activity,[11],Non-toxic
same,solubility kinetic,[12],51 µM
same,pIC50,[13],< 6.00
same,pIC50,[14],< 6.00
same,CLH,[15],9 mL/min/g
same,Papp A→B,[16],17 ×10⁻⁶ cm/s
